Source: PubChem BioAssay (NCI)
Several values for one entry are separate records, joined by “and”; a condition that tells them apart may be missing. Identical values can stand only once.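 Test compounds were applied to cells in 96-well plates for 48 hours at 5 doses. The concentration for 50% growth inhibition is given as GI50. TGI is the concentration that stops growth completely.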

Key:
Assay in all cases: NCI tumour cell line growth inhibition, 48 h
RPMI-8226 leukemia = test system: RPMI-8226 leukemia
OVCAR-3 ovarian = test system: OVCAR-3 ovarian
T-47D breast = test system: T-47D breast
HS 578T breast = test system: HS 578T breast
K-562 leukemia = test system: K-562 leukemia
LOX IMVI melanoma = test system: LOX IMVI melanoma
MDA-MB-231 breast = test system: MDA-MB-231 breast
HCT-15 colon = test system: HCT-15 colon
NCI-H226 lung = test system: NCI-H226 lung
SF-295 CNS = test system: SF-295 CNS

## CC(C)=C[C@@H]1C[C@H](n2cc(C)c(=O)[nH]c2=O)ON1CCO
RPMI-8226 leukemia
  TGI: > 100 µM
OVCAR-3 ovarian
  TGI: > 100 µM
T-47D breast
  TGI: > 100 µM
HS 578T breast
  TGI: > 100 µM
K-562 leukemia
  TGI: > 100 µM
LOX IMVI melanoma
  TGI: > 100 µM
MDA-MB-231 breast
  TGI: > 100 µM
HCT-15 colon
  TGI: > 100 µM
NCI-H226 lung
  TGI: > 100 µM
SF-295 CNS
  TGI: > 100 µM

## O=C(O)[C@@H]1C[C@@H](O)CN1C(=O)OCc1ccccc1
RPMI-8226 leukemia
  TGI: > 100 µM
OVCAR-3 ovarian
  TGI: > 100 µM
T-47D breast
  TGI: > 100 µM
HS 578T breast
  TGI: > 100 µM
K-562 leukemia
  TGI: > 100 µM
LOX IMVI melanoma
  TGI: > 100 µM
MDA-MB-231 breast
  TGI: > 100 µM
HCT-15 colon
  TGI: > 100 µM
NCI-H226 lung
  TGI: > 100 µM
SF-295 CNS
  TGI: > 100 µM

## C=C1C(=O)OC2/C=C(\CO)C(OC(C)=O)CC(O)/C(C)=C/C(OC(=O)C(C)CC)C12 (stereo unspecified)
RPMI-8226 leukemia
  GI50: 5.57 µM and 24.9 µM
  TGI: 23.4 µM and 56.3 µM
OVCAR-3 ovarian
  TGI: 33.4 µM and 30.6 µM
T-47D breast
  TGI: 30.7 µM
HS 578T breast
  TGI: > 100 µM
K-562 leukemia
  GI50: 5.62 µM and 36.9 µM
  TGI: 21.4 µM and > 100 µM
LOX IMVI melanoma
  TGI: 29.3 µM and 38.3 µM
MDA-MB-231 breast
  TGI: 32.7 µM
HCT-15 colon
  TGI: > 100 µM
NCI-H226 lung
  TGI: 59.6 µM
SF-295 CNS
  TGI: > 100 µM

## O=C1CCSSCCC(=O)NCCN1
RPMI-8226 leukemia
  TGI: > 100 µM
OVCAR-3 ovarian
  TGI: > 100 µM
T-47D breast
  TGI: > 100 µM
HS 578T breast
  TGI: > 100 µM
K-562 leukemia
  TGI: > 100 µM
LOX IMVI melanoma
  TGI: > 100 µM
MDA-MB-231 breast
  TGI: > 100 µM
HCT-15 colon
  TGI: > 100 µM
NCI-H226 lung
  TGI: > 100 µM
SF-295 CNS
  TGI: > 100 µM

## O=C1NCCCc2nonc21
RPMI-8226 leukemia
  TGI: > 100 µM
OVCAR-3 ovarian
  TGI: > 100 µM
T-47D breast
  TGI: > 100 µM
HS 578T breast
  TGI: > 100 µM
K-562 leukemia
  TGI: > 100 µM
LOX IMVI melanoma
  TGI: > 100 µM
MDA-MB-231 breast
  TGI: > 100 µM
HCT-15 colon
  TGI: > 100 µM
NCI-H226 lung
  TGI: > 100 µM
SF-295 CNS
  TGI: > 100 µM

## Cc1ccccc1OC(C)C(=O)NN1C(=O)CC(=O)N(c2ccc(Cl)cc2)C1=S (stereo unspecified)
RPMI-8226 leukemia
  TGI: > 100 µM
OVCAR-3 ovarian
  TGI: > 100 µM
T-47D breast
  TGI: > 100 µM
HS 578T breast
  TGI: > 100 µM
K-562 leukemia
  TGI: > 100 µM
LOX IMVI melanoma
  TGI: > 100 µM
MDA-MB-231 breast
  TGI: > 100 µM
HCT-15 colon
  TGI: > 100 µM
NCI-H226 lung
  TGI: > 100 µM
SF-295 CNS
  TGI: > 100 µM

## COc1ccc2c(c1)O/C(=C\c1cccc(OCC(=O)Nc3nc4c(s3)CCCC4)c1)C2=O
RPMI-8226 leukemia
  GI50: 3.41 µM
  TGI: > 33.2 µM
OVCAR-3 ovarian
  GI50: 2.98 µM
  TGI: 7.63 µM
T-47D breast
  GI50: 6.39 µM
  TGI: > 100 µM
HS 578T breast
  GI50: 35.1 µM
  TGI: > 100 µM
K-562 leukemia
  GI50: 4.08 µM
  TGI: > 78.3 µM
LOX IMVI melanoma
  GI50: 1.16 µM
  TGI: 3.32 µM
MDA-MB-231 breast
  GI50: 6.58 µM
  TGI: > 53.9 µM
HCT-15 colon
  GI50: 18.1 µM
  TGI: > 100 µM
NCI-H226 lung
  GI50: > 100 µM
  TGI: > 100 µM
SF-295 CNS
  TGI: > 43.2 µM

## CCOP(=O)(OCC)C1C(CO)OC(n2ccc(=O)[nH]c2=O)C1O (stereo unspecified)
RPMI-8226 leukemia
  TGI: > 100 µM
OVCAR-3 ovarian
  TGI: > 100 µM
T-47D breast
  TGI: > 100 µM
HS 578T breast
  TGI: > 100 µM
K-562 leukemia
  TGI: > 100 µM
LOX IMVI melanoma
  TGI: > 100 µM
MDA-MB-231 breast
  TGI: > 100 µM
HCT-15 colon
  TGI: > 100 µM
NCI-H226 lung
  TGI: > 100 µM
SF-295 CNS
  TGI: > 100 µM

## CC(=O)OC(C)c1cc2c(s1)C(=O)c1sccc1C2=O (stereo unspecified)
RPMI-8226 leukemia
  TGI: 4.78 µM
OVCAR-3 ovarian
  TGI: 8.71 µM
T-47D breast
  TGI: 6.2 µM
HS 578T breast
  TGI: 7.36 µM
K-562 leukemia
  TGI: > 100 µM
LOX IMVI melanoma
  TGI: > 100 µM
MDA-MB-231 breast
  TGI: 16.8 µM
HCT-15 colon
  TGI: 2.38 µM
NCI-H226 lung
  TGI: 3.94 µM
SF-295 CNS
  TGI: 2.56 µM

## Cc1cc(-c2nc3c(O)cccc3s2)ccc1N
RPMI-8226 leukemia
  TGI: > 100 µM
OVCAR-3 ovarian
  TGI: > 100 µM
T-47D breast
  TGI: > 100 µM
HS 578T breast
  TGI: 40.8 µM
K-562 leukemia
  TGI: > 100 µM
LOX IMVI melanoma
  TGI: 40.1 µM
MDA-MB-231 breast
  TGI: 61.7 µM
HCT-15 colon
  TGI: 79 µM
NCI-H226 lung
  TGI: > 100 µM
SF-295 CNS
  TGI: 72.2 µM

## Oc1ccc(-c2nnc3sc(-c4ccc(F)cc4)nn23)cc1
RPMI-8226 leukemia
  GI50: 39 µM
  TGI: > 100 µM
OVCAR-3 ovarian
  GI50: 18.6 µM
  TGI: > 100 µM
T-47D breast
  GI50: 21 µM
  TGI: > 100 µM
HS 578T breast
  GI50: 16.1 µM
  TGI: 40.2 µM
K-562 leukemia
  GI50: > 100 µM
  TGI: > 100 µM
LOX IMVI melanoma
  GI50: 34.5 µM
  TGI: > 100 µM
MDA-MB-231 breast
  GI50: 10.6 µM
  TGI: 46.8 µM
HCT-15 colon
  GI50: > 100 µM
  TGI: > 100 µM
NCI-H226 lung
  GI50: 49.6 µM
  TGI: > 100 µM
SF-295 CNS
  GI50: 18.1 µM
  TGI: 59.9 µM

## COC(=O)c1ccccc1/C=C1/Cc2ccccc2C1=O
RPMI-8226 leukemia
  TGI: 49.5 µM
OVCAR-3 ovarian
  TGI: > 100 µM
T-47D breast
  TGI: > 100 µM
HS 578T breast
  TGI: 97.3 µM
K-562 leukemia
  TGI: > 100 µM
LOX IMVI melanoma
  TGI: 39.9 µM
MDA-MB-231 breast
  TGI: > 100 µM
HCT-15 colon
  TGI: 58.6 µM
NCI-H226 lung
  TGI: > 100 µM
SF-295 CNS
  TGI: > 100 µM

## C/C(N=Nc1nc2ccccc2s1)=C1/C=CC=CN1O
RPMI-8226 leukemia
  TGI: > 100 µM
OVCAR-3 ovarian
  TGI: 71.2 µM
T-47D breast
  TGI: > 100 µM
HS 578T breast
  TGI: > 100 µM
K-562 leukemia
  TGI: > 100 µM
LOX IMVI melanoma
  TGI: > 100 µM
MDA-MB-231 breast
  TGI: > 100 µM
HCT-15 colon
  TGI: > 100 µM
NCI-H226 lung
  TGI: > 100 µM
SF-295 CNS
  TGI: 3.72 µM

## CC(C)(C)NC(=O)[C@H]1CC[C@H]2[C@@H]3CC=C4NC(=O)CC[C@]4(C)[C@H]3CC[C@]12C
RPMI-8226 leukemia
  TGI: > 100 µM
OVCAR-3 ovarian
  TGI: > 100 µM
T-47D breast
  TGI: > 100 µM
HS 578T breast
  TGI: > 100 µM
K-562 leukemia
  TGI: > 100 µM
LOX IMVI melanoma
  TGI: > 100 µM
MDA-MB-231 breast
  TGI: > 100 µM
HCT-15 colon
  TGI: > 100 µM
NCI-H226 lung
  TGI: > 100 µM
SF-295 CNS
  TGI: > 100 µM

## C=C1[C@@H](O)C[C@@]23CC[C@@H]4[C@@]5(C)CC[C@@H](OC(C)=O)C(C)(C)[C@@H]5C[C@@H](OC5OC(COC(C)=O)C(O)C(O)C5O)[C@@]4(C)C2=CC[C@H]3[C@H]1C (stereo partly specified)
RPMI-8226 leukemia
  TGI: 8.01 µM
OVCAR-3 ovarian
  TGI: 16.2 µM
T-47D breast
  TGI: 19.2 µM
HS 578T breast
  TGI: 22.4 µM
K-562 leukemia
  TGI: 10.6 µM
LOX IMVI melanoma
  TGI: 10.9 µM
MDA-MB-231 breast
  TGI: 21.4 µM
HCT-15 colon
  TGI: 27.8 µM
NCI-H226 lung
  TGI: 17.4 µM
SF-295 CNS
  TGI: 14.8 µM

## COc1cc(OCc2ccc3oc(=O)c(-c4ccccc4)nc3c2)cc(OC)c1OC
RPMI-8226 leukemia
  TGI: > 100 µM
OVCAR-3 ovarian
  TGI: > 100 µM
T-47D breast
  TGI: > 100 µM
HS 578T breast
  TGI: > 100 µM
K-562 leukemia
  TGI: > 100 µM
LOX IMVI melanoma
  TGI: > 100 µM
MDA-MB-231 breast
  TGI: > 100 µM
HCT-15 colon
  TGI: > 100 µM
NCI-H226 lung
  TGI: > 100 µM
SF-295 CNS
  TGI: > 100 µM

## O=C(Nc1cccc2cnccc12)c1cc2c(cc1Cl)Sc1nccn1S2(=O)=O
RPMI-8226 leukemia
  TGI: 38.6 µM
OVCAR-3 ovarian
  TGI: 56.7 µM
T-47D breast
  TGI: 40.8 µM
HS 578T breast
  TGI: 73.7 µM
K-562 leukemia
  TGI: > 100 µM
LOX IMVI melanoma
  TGI: 31.8 µM
MDA-MB-231 breast
  TGI: 36.5 µM
HCT-15 colon
  TGI: 27.8 µM
NCI-H226 lung
  TGI: 38.5 µM
SF-295 CNS
  TGI: 43.5 µM

## O=C(CN1CCCCC1)CC(O)(C(F)(F)F)C(F)(F)F
RPMI-8226 leukemia
  TGI: > 100 µM
OVCAR-3 ovarian
  TGI: > 100 µM
T-47D breast
  TGI: > 100 µM
HS 578T breast
  TGI: > 100 µM
K-562 leukemia
  TGI: > 100 µM
LOX IMVI melanoma
  TGI: > 100 µM
MDA-MB-231 breast
  TGI: > 100 µM
HCT-15 colon
  TGI: > 100 µM
NCI-H226 lung
  TGI: > 100 µM
SF-295 CNS
  TGI: > 100 µM

## O=c1c2ncn(C3CC(O)C(CO)O3)c2nnn1Cc1ccccc1[N+](=O)[O-] (stereo unspecified)
RPMI-8226 leukemia
  TGI: > 100 µM
OVCAR-3 ovarian
  TGI: > 100 µM
T-47D breast
  TGI: > 100 µM
HS 578T breast
  TGI: > 100 µM
K-562 leukemia
  TGI: > 100 µM
LOX IMVI melanoma
  TGI: > 100 µM
MDA-MB-231 breast
  TGI: > 100 µM
HCT-15 colon
  TGI: > 100 µM
NCI-H226 lung
  TGI: > 100 µM
SF-295 CNS
  TGI: > 100 µM
